Measured values reported in ChEMBL document CHEMBL1126426, “Nucleotidic prodrugs of anti-HIV dideoxynucleosides” (Bioorg Med Chem Lett, 1992).

How the values were obtained:
[1] = test system: CCRF-CEM; assay: The compound was evaluated for the activity on HIV infected CEM cells.; assay type: functional; conditions: Homo sapiens, read-out: ED50 (the source's name)
[2] = The compound was evaluated for its stability in CEM extract; S - Stable; assay type: physicochemical; conditions: human
[3] = The compound was evaluated for its stability in RPMI at pH of 7.2 dose 10 x 10e-3; S - Stable; assay type: physicochemical; conditions: pH 7.2
[4] = The compound was evaluated for its stability in RPMI containing 10 % of FCS.; assay type: physicochemical; conditions: cattle, RPMI culture medium with 10% FCS
[5] = The compound was evaluated for its stability in RPMI containing 10 % of heat-inactivated FCS.; assay type: physicochemical; conditions: cattle, RPMI culture medium with 10% heat-inactivated FCS
[6] = Kinetic constant in RPMI containing 10 % of FCS.; assay type: ADME; conditions: cattle
[7] = Kinetic constant in RPMI containing 10 % of heat-inactivated FCS.; assay type: ADME; conditions: cattle

EC50 [1]	T1/2 [2]	T1/2 [3]	half-life [4]	half-life [5]	k [6]	k [7]	SMILES
0.5 µM							COP(=O)(OCC1CCC(n2ccc(N)nc2=O)O1)OC[C@@H]1CC[C@H](n2ccc(N)nc2=O)O1 (some centres undefined)
0.1 µM							Nc1ccn([C@H]2CC[C@@H](CO)O2)c(=O)n1 [ZALCITABINE]
0.05 µM	Stable	Stable	22 h	48 h	0.00052 min⁻¹	0.00024 min⁻¹	Nc1ccn(C2CCC(COP(=O)(O)OC[C@@H]3CC[C@H](n4ccc(N)nc4=O)O3)O2)c(=O)n1 (some centres undefined)
